Results: PubChem BioAssay AID2060512 (Molecular Pharmacology Branch, DTP, NCI, 2025)

Test system: 186277-243-T-J2-PDC complex spheroid viability
Assay: Anticancer human tumor 186277-243-T-J2-PDC patient-derived colon adenocarcinoma cell line growth inhibition [GQUAD]
Details: for IC50: curve of first compound; for viability, T/C: stronger effect = lower value
Summary of the method: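 Viability of tumor cells grown as complex spheroids with endothelial and stromal cells, exposed to drug combinations. Top concentration at or near clinical Cmax (else 10 microM), diluted in half-log increments.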

[1] = second compound 0.0316 µM, first compound 0.0316 µM
[2] = second compound 0.0316 µM, first compound 0.1 µM
[3] = second compound 0.0316 µM, first compound 0.316 µM
[4] = second compound 0.0316 µM, first compound 1 µM
[5] = second compound 0.0316 µM, first compound 3.16 µM
[6] = second compound 0.0316 µM, first compound 10 µM
[7] = second compound 0.1 µM, first compound 0.0316 µM
[8] = second compound 0.1 µM, first compound 0.1 µM
[9] = second compound 0.1 µM, first compound 0.316 µM
[10] = second compound 0.1 µM, first compound 1 µM
[11] = second compound 0.1 µM, first compound 3.16 µM
[12] = second compound 0.1 µM, first compound 10 µM
[13] = second compound 0.316 µM, first compound 0.0316 µM
[14] = second compound 0.316 µM, first compound 0.1 µM
[15] = second compound 0.316 µM, first compound 0.316 µM
[16] = second compound 0.316 µM, first compound 1 µM
[17] = second compound 0.316 µM, first compound 3.16 µM
[18] = second compound 0.316 µM, first compound 10 µM
[19] = second compound 1 µM, first compound 0.0316 µM
[20] = second compound 1 µM, first compound 0.1 µM
[21] = second compound 1 µM, first compound 0.316 µM
[22] = second compound 1 µM, first compound 1 µM
[23] = second compound 1 µM, first compound 3.16 µM
[24] = second compound 1 µM, first compound 10 µM
[25] = second compound 3.16 µM, first compound 0.0316 µM
[26] = second compound 3.16 µM, first compound 0.1 µM
[27] = second compound 3.16 µM, first compound 0.316 µM
[28] = second compound 3.16 µM, first compound 1 µM
[29] = second compound 3.16 µM, first compound 3.16 µM
[30] = second compound 3.16 µM, first compound 10 µM
[31] = second compound 10 µM, first compound 0.0316 µM
[32] = second compound 10 µM, first compound 0.1 µM
[33] = second compound 10 µM, first compound 0.316 µM
[34] = second compound 10 µM, first compound 1 µM
[35] = second compound 10 µM, first compound 3.16 µM
[36] = second compound 10 µM, first compound 10 µM
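For viability, T/C in this document: 100% = DMSO vehicle control viability.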

## C#Cc1c(F)ccc2cc(O)cc(-c3ncc4c(N5CC6CCC(C5)N6)nc(OCC56CCCN5CC(F)C6)nc4c3F)c12 (centres undefined) + Cc1cnc(CNC(=O)c2c(=O)c3ccc(N4CCCN(C)CC4)nc3n3c2sc2ccccc23)cn1
Second compound 0.0316 µM
  IC50: 58.7 nM
Second compound 0.1 µM
  IC50: < 31.6 nM
Second compound 0.316 µM
  IC50: < 31.6 nM
Second compound 1 µM
  IC50: < 31.6 nM
Second compound 3.16 µM
  IC50: < 31.6 nM
Second compound 10 µM
  IC50: < 31.6 nM
[1]
  viability, T/C: 75.4%
[2]
  viability, T/C: 26.8%
[3]
  viability, T/C: 19.9%
[4]
  viability, T/C: 8.12%
[5]
  viability, T/C: 13.9%
[6]
  viability, T/C: 11.4%
[7]
  viability, T/C: 40%
[8]
  viability, T/C: 18.8%
[9]
  viability, T/C: 9.79%
[10]
  viability, T/C: 7.98%
[11]
  viability, T/C: 9.12%
[12]
  viability, T/C: 5.32%
[13]
  viability, T/C: 23.8%
[14]
  viability, T/C: 14.6%
[15]
  viability, T/C: 8.91%
[16]
  viability, T/C: 5.69%
[17]
  viability, T/C: 5.84%
[18]
  viability, T/C: 4.29%
[19]
  viability, T/C: 18.2%
[20]
  viability, T/C: 9.62%
[21]
  viability, T/C: 6.74%
[22]
  viability, T/C: 5.02%
[23]
  viability, T/C: 5.11%
[24]
  viability, T/C: 3.11%
[25]
  viability, T/C: 17.2%
[26]
  viability, T/C: 12.5%
[27]
  viability, T/C: 5.45%
[28]
  viability, T/C: 4.44%
[29]
  viability, T/C: 4.72%
[30]
  viability, T/C: 2.99%
[31]
  viability, T/C: 14.2%
[32]
  viability, T/C: 9.54%
[33]
  viability, T/C: 4.98%
[34]
  viability, T/C: 0.27%
[35]
  viability, T/C: 2.03%
[36]
  viability, T/C: 0.19%

## CC(=O)O[C@H]1C(=O)[C@@]2(C)[C@H]([C@H](OC(=O)c3ccccc3)[C@]3(O)C[C@H](OC(=O)[C@H](O)[C@@H](NC(=O)c4ccccc4)c4ccccc4)C(C)=C1C3(C)C)[C@]1(OC(C)=O)CO[C@@H]1C[C@@H]2O + Cc1cnc(CNC(=O)c2c(=O)c3ccc(N4CCCN(C)CC4)nc3n3c2sc2ccccc23)cn1
Second compound 0.0316 µM
  IC50: < 31.6 nM
Second compound 0.1 µM
  IC50: < 31.6 nM
Second compound 0.316 µM
  IC50: < 31.6 nM
Second compound 1 µM
  IC50: < 31.6 nM
Second compound 3.16 µM
  IC50: < 31.6 nM
Second compound 10 µM
  IC50: < 31.6 nM
[1]
  viability, T/C: 25.6%
[2]
  viability, T/C: 11.8%
[3]
  viability, T/C: 7.83%
[4]
  viability, T/C: 7.31%
[5]
  viability, T/C: 7.28%
[6]
  viability, T/C: 7.34%
[7]
  viability, T/C: 26.4%
[8]
  viability, T/C: 18.3%
[9]
  viability, T/C: 11.9%
[10]
  viability, T/C: 11.9%
[11]
  viability, T/C: 11%
[12]
  viability, T/C: 10.4%
[13]
  viability, T/C: 32.6%
[14]
  viability, T/C: 18.1%
[15]
  viability, T/C: 18.1%
[16]
  viability, T/C: 20.5%
[17]
  viability, T/C: 17%
[18]
  viability, T/C: 16.6%
[19]
  viability, T/C: 29.4%
[20]
  viability, T/C: 29.9%
[21]
  viability, T/C: 23.1%
[22]
  viability, T/C: 25.1%
[23]
  viability, T/C: 23.8%
[24]
  viability, T/C: 21.5%
[25]
  viability, T/C: 24.4%
[26]
  viability, T/C: 27%
[27]
  viability, T/C: 24%
[28]
  viability, T/C: 23.5%
[29]
  viability, T/C: 25.5%
[30]
  viability, T/C: 22.3%
[31]
  viability, T/C: 29.8%
[32]
  viability, T/C: 25.5%
[33]
  viability, T/C: 26.1%
[34]
  viability, T/C: 25.2%
[35]
  viability, T/C: 24.8%
[36]
  viability, T/C: 23.7%
